Our source for the Kd values is PMC4492107 (Science signaling, 2015).

In the assay the target is T1, tcTERT (Tribolium castaneum TERT) (Tribolium castaneum, UniProt Q0QHL8).
T1 sequence (Q0QHL8 1-596): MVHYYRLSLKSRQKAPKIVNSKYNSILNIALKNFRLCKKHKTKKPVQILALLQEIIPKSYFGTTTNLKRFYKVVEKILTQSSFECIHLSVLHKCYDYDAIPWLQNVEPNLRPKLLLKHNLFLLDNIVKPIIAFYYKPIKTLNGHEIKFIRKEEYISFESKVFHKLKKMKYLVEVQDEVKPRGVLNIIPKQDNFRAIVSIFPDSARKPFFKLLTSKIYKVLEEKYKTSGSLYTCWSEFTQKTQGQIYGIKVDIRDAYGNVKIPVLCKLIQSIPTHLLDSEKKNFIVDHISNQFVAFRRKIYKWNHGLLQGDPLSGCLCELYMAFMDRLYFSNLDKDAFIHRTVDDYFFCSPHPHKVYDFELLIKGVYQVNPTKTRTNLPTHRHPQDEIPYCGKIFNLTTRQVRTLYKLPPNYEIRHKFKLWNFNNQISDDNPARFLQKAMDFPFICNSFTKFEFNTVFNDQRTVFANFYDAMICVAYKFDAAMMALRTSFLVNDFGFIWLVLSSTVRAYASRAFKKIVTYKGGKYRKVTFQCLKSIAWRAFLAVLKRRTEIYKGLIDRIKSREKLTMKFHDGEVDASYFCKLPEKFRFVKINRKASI
The assay is described as follows: SPR with POPC:POPE:S1P. Type of assay: binding.

The Kd is the constant that tells how readily two partners part at equilibrium. Read a low Kd as a tighter complex. The molecule `CCCCCCCCCCCCC/C=C/[C@@H](O)[C@@H](N)COP(=O)(O)O` [S1P, sphingosine 1-phosphate] displayed a Kd of around 4.8 µM.
